# Data published in ChEMBL document CHEMBL1133736, “Modeling cyclooxygenase inhibition. Implication of active site hydration on the selectivity of ketoprofen analogues” (J Med Chem, 2000).
# Tests used:
# [1] = target: T1, Prostaglandin G/H synthase 2 (Homo sapiens, UniProt P35354); assay: Concentration required for 50% inhibition against Prostaglandin G/H synthase 2 from human
# T1 sequence (P35354 whole entry): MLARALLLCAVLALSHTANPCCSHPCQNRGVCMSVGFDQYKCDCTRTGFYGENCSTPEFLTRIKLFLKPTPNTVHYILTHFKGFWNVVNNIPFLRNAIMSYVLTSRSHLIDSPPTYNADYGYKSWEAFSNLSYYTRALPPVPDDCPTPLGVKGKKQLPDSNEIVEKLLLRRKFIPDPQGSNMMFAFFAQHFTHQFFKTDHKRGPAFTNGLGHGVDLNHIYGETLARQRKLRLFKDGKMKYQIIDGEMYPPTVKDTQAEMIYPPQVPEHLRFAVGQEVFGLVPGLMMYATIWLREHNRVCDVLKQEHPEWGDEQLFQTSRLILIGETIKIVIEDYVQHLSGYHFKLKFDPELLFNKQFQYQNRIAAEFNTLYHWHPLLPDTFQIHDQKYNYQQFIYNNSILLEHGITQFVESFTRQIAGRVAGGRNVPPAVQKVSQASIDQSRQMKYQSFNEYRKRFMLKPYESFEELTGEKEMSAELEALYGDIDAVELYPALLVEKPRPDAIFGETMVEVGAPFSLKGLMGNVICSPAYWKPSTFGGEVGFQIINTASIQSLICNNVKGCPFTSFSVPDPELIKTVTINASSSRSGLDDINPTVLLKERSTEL
# [2] = target: Prostaglandin G/H synthase 1 (Homo sapiens, UniProt P23219); assay: Concentration required for 50% inhibition against Prostaglandin G/H synthase 1 from human
# Chain of Prostaglandin G/H synthase 1 (P23219 whole entry): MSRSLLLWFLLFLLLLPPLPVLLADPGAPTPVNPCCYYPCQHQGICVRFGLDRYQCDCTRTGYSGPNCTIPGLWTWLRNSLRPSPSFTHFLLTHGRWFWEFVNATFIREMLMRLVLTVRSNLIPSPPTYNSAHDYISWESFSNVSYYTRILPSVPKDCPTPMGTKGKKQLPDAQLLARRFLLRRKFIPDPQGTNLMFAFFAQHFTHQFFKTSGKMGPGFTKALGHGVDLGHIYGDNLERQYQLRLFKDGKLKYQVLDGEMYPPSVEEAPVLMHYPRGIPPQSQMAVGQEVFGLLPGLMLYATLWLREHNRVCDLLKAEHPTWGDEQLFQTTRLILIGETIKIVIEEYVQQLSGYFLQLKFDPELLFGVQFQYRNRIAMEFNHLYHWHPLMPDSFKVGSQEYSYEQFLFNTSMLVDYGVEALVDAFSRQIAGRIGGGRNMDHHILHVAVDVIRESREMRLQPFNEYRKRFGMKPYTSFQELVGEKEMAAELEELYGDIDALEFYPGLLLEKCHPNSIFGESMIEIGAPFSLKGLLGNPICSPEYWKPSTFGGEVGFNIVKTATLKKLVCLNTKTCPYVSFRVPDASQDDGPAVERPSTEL
IC50 [1] [µM],IC50 [2] [µM],Structure (SMILES)
0.3,0.051,CC(C(=O)O)c1cc(C(=O)c2ccccc2)ccc1O (stereo not drawn)
,0.042,COc1ccc(C(=O)c2ccccc2)cc1C(C)C(=O)O (stereo not drawn)
